Converted amounts (≈) assume the structure as drawn.
Tests used:
A. fumigatus [1] = test: Disc diffusion assay; format: cell-based; details: concentration developing zone of inhibition of 6.0-mm diameter
Experimental: (§1) Pathogenic strains of fungi were obtained from the Mycology Department of Vallabhbhai Patel Chest Institute, Delhi. All the strains were grown on Sabouraud dextrose agar at 37° C. The conidia form these cultures were harvested and suspended in Sabouraud maltose broth. The number of conidia was counted using haemocytometer and their number in the suspension was adjusted to as per need of the experiment.
The disc diffusion test was performed as per described in the section of details of invention. Amphotericin B 1.25 μg/disc was used in assay as positive control standard drug. Additional discs impregnated with equivalent amount of solvent were also used in the assay as negative controls (FIG. 5).
The potency of the compound was determined with the help of standard curve constructed using amphotericin B as standard drug against A. fumigatus. Standard curve was prepared according to method given in the Indian Pharmacopoeia. The corrected values of diameter of zone of inhibition along with lowest and highest values were determined. These values were plotted on semilog paper to prepare standard curve. The value of diameter of zone of inhibition obtained for compound was put into the standard curve and corresponding dose producing the effect equivalent to amphotericin B was determined to find out the potency of the compound (FIG. 6).

A. fumigatus infection = test: In vivo efficacy (survival) in mice model of aspergillosis; design: species or system Balb/C mice; details: 7 doses
Experimental: The mice model of aspergillosis described by Dixon et al (1989), was used to study the effects of compound on in vivo infection of A. fumigatus.
The animals were housed in the micro-barrier cages on sterile bedding and fed ad libitum water and food. The mice were divided into 6 groups and each group contained 8-10 animals. The mice were infected experimentally with A. fumigatus. Three days prior to infection with conidia, mice were injected subcutaneously with 3 doses (250.0 mg/kg/day) of cortisone acetate in 400.0 μl of PBS. On the infection day, each mouse received 2×10^7 conidia by nasal instillation of a single droplet of conidial suspension.
A. fumigatus (190/96) isolate was grown on Sabouraud dextrose agar plates at 37° C. for 4 days. The conidia were collected from the culture plates using PBS (pH 7.2) containing 0.05% Tween 80 (Sigma Chemicals) and the suspension was filtered through sterile glass wool. The conidia were pelleted by centrifugation at 2000 rpm and re-suspended in PBS, pH 7.2. The number of conidia was counted and adjusted to 1×10^8 conidia/ml. The viability of the conidia was determined by plating the dilutions of suspensions on Sabouraud dextrose agar.
The purified compound (metelatropinyl ester) isolated from the D. metel was administered orally in the concentration ranging from 0.0, 25.0 50.0 100.0 200.0 and 400.0 mg/kg body weight to the mice infected experimentally with A. fumigatus.
The dosing of the animals (cortisone treated and challenged) with compound in 6 different groups was initiated within 30 min after challenge with A. fumigatus conidia.
Group I: The mice were treated orally with 7 doses of 25.0 mg/kg/day of the compound.
Group II: The animals infected with A. fumigatus conidia were given 50.0 mg/kg/day of the compound for 7 days orally.
Group III: The animals in this group were given 7 oral doses of 100.0 mg/kg/day of the compound.
Group IV: In this group of animals, 7 oral doses of the compound (200.0 mg/kg/day) were given.
Group V: The animals of this group were treated with 7 doses of 400.0 mg/kg/day orally over a period of 7 days.
Group VI: The animals of this group acted as control and were treated orally with 7 doses of 400 μl PBS containing solvent.
The animals were housed in properly labeled cages and kept under close watch for weight loss and the mortality. The survival rate over a period of 10 days was calculated and the fungal burden in survivors determined (Clemons and Stevens, 1994).
The Balb/C mice of 6-8 weak of age of either sex, weighing 15-20 g, were housed in micro-barrier cages on sterile bedding and fed ad libitum water and food. The animals were divided into 6 groups and each group contained 8-10 mice.

A. fumigatus [2] = test: Microbroth dilution assay; format: cell-based; design: key to Activity of the compound against Aspergillus sp. after 48 hrs.: +ve if medium appeared clear with out any growth of fungi; −ve if growth was there
Experimental: as §1
(§2) The antifungal susceptibility of the fungi to various fractions or the purified component was assayed by the microbroth dilution method (Forthergill A. W. and McGough A. W., 1995, Clin. Microbiol. Procedure Handbook. In Vitro susceptibility Testing of Yeast, 5.15.1-5.15.15). The fungal spores were harvested from 96-h cultures and their number adjusted to 1×10^6 per ml. The Sabouraud Dextrose medium was dissolved in glass double distilled water and autoclaved at 10 psi for 15 min. 90-μl medium was added into the wells of cell culture plates. The different concentrations of the extract, fractions or the purified compound were prepared in duplicate wells and then the wells were inoculated with 10 μl of spore suspension. The plates were incubated at 37° C. and examined macroscopically after 48 h for the growth of fungal mycelia. The activity was represented as −ve if growth was there and +ve if medium appeared clear with out any growth of fungi.
(§3) The antifungal susceptibility of the fungi to the purified compound was assayed by the microbroth dilution method. The different concentrations of the purified compound ranging from 21.87 to 350 μg/ml were prepared in duplicate wells by twofold dilution method. The test was done as described above.

A. flavus = test: Microbroth dilution assay; format: cell-based; design: key to Activity of the compound against Aspergillus sp. after 48 hrs.: +ve if medium appeared clear with out any growth of fungi; −ve if growth was there
Experimental: as §1, §2, §3

A. niger = test: Microbroth dilution assay; format: cell-based; design: key to Activity of the compound against Aspergillus sp. after 48 hrs.: +ve if medium appeared clear with out any growth of fungi; −ve if growth was there
Experimental: as §1, §2, §3

CCCCC(=O)OC(C)CC1NCC(C)=C1C (stereo not shown) [PC-1, 2-(3,4-dimethyl-2,5-dihydro-1H-pyrrol-2-yl)-1-methylethyl pentanoate]
MIC by disc diffusion assay (A. fumigatus [1]): 5 μg/disc | MIC by disc diffusion assay (A. fumigatus [1]; listed as antifungal lead molecule): 5.0 μg/disc | survived up to 10th day (A. fumigatus infection; 25.0 mg/kg body weight oral, 1 out of 10): 10% | survived up to 10th day (A. fumigatus infection; 50.0 mg/kg body weight oral, 1 out of 8): 12.5% | survived up to 10th day (A. fumigatus infection; 100.0 mg/kg body weight oral, 3 out of 9): 33.3% | survived up to 10th day (A. fumigatus infection; 200.0 mg/kg body weight oral, 4 out of 9): 44.4% | survived up to 10th day (A. fumigatus infection; 400.0 mg/kg body weight oral, 8 out of 10): 80% | Activity of the compound against Aspergillus sp. after 48 hrs. (A. fumigatus [2]; 21.87 μg/ml): − | Activity of the compound against Aspergillus sp. after 48 hrs. (A. fumigatus [2]; 43.75 μg/ml): − | MIC (A. fumigatus [2]; Aspergillus fumigatus, no visual growth, 48 h): 87.5 µg/mL (≈ 366 µM) | Activity of the compound against Aspergillus sp. after 48 hrs. (A. flavus; 21.87 μg/ml): − | Activity of the compound against Aspergillus sp. after 48 hrs. (A. flavus; 43.75 μg/ml): − | MIC (A. flavus; Aspergillus flavus, no visual growth, 48 h): 87.5 µg/mL (≈ 366 µM) | Activity of the compound against Aspergillus sp. after 48 hrs. (A. niger; 21.87 μg/ml): − | Activity of the compound against Aspergillus sp. after 48 hrs. (A. niger; 43.75 μg/ml): − | MIC (A. niger; Aspergillus niger, no visual growth, 48 h): 87.5 µg/mL (≈ 366 µM)
